{
  "source": "paper PMC9181982",
  "about": "“Biphenyl Ether Analogs Containing Pomalidomide as Small-Molecule Inhibitors of the Programmed Cell Death-1/Programmed Cell Death-Ligand 1 Interaction” (Molecules, 2022)",
  "key": {"[1]": {"target": "T1, PD-L1 protein (Homo sapiens, UniProt Q9NZQ7)", "T1 construct": "PD-L1 gene (amino acids 18–239); made in house; host or cells: E. coli BL21", "T1 sequence (Q9NZQ7 18-239)": "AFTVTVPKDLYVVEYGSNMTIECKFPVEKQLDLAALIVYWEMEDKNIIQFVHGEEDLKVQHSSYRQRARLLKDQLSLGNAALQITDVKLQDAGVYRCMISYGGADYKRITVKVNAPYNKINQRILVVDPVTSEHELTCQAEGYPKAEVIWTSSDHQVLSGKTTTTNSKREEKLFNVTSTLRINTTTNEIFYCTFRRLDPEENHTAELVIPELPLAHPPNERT", "experiment": "1H NMR binding analysis, PD-L1 protein titrated with ligand", "details": "for Protein precipitation during NMR titration: 1H NMR titration, compound 6 at protein–ligand ratio 1:10; for Binding to PD-L1 by 1H NMR titration: PBS pH 7.4, 300 K, protein–ligand ratios up to 1:10", "method": "Apart from the HTRF assay, we performed the NMR [33, 34] binding analysis by recording the ^1H spectrum of the PD-L1 protein titrated with compound 4 (Figure 1).\nThe E. coli strain BL21 was transformed with a pET-21b plasmid carrying the PD-L1 gene (amino acids 18–239). The bacteria were cultured in LB at 37 °C until OD600nm of 0, 6 when the recombinant protein production was induced with 1 mM IPTG. The protein production continued overnight. The inclusion bodies were collected by centrifugation, washed twice with 50 mM Tris HCl, pH 8.0, containing 200 mM NaCl, 10 mM EDTA, 10 mM 2-mercaptoethanol, and 0.5% Triton X-100, followed by a single wash with the same buffer but with no Triton X-100. The washed inclusion bodies were resuspended overnight in 50 mM Tris HCl, pH 8.0, 6 M GuHCl, 200 mM NaCl, and 10 mM 2-mercaptoethanol and clarified with centrifugation. Refolding of PD-L1 was performed by dropwise dilution into 0.1 M Tris HCl, pH 8.0, containing 1 M L-arginine hydrochloride, 0.25 mM oxidized glutathione, and 0.25 mM reduced glutathione. The refolded protein was dialyzed three times against 10 mM Tris HCl, pH 8.0, containing 20 mM NaCl and purified by size exclusion chromatography using Superdex 75 and a dialysis buffer. The quality of the refolded protein was evaluated by SDS-PAGE and NMR.\nNMR spectra were recorded in PBS, pH 7.4, containing 10% (v/v) of D2O added to the samples to provide the lock signal. Water suppression was carried out using the WATERGATE sequence. All the spectra were recorded at 300 K using a Bruker Avance 600 MHz spectrometer with the Cryo-Platform. The NMR spectrum was recorded at three different ligand/protein ratios from 0 to 10. The samples were prepared by adding small amounts of a 50 mM ligand stock solution in DMSO to the protein solution (0.20 mL) of the PD-L1 fragment at a concentration of 0.14 mM. The acquisition parameters for each spectrum were as follows: size of FID32768, number of scans: 32. The spectra were visualized using TopSpin 4.0.2. (Bruker, Billerica, MA, USA)"}, "[2]": {"target": "T2, PD-1/PD-L1 complex (Homo sapiens, UniProt Q9NZQ7)", "T2 construct": "purchased Cis-Bio", "T2 sequence (Q9NZQ7 19-238 limits assumed, one chain of several)": "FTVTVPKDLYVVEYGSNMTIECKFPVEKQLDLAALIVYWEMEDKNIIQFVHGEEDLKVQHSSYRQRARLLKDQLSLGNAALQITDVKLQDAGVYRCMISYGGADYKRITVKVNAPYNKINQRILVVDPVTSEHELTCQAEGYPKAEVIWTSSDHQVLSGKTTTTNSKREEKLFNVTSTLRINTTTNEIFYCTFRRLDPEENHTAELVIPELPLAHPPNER", "experiment": "HTRF (homogeneous time-resolved fluorescence) PD-1/PD-L1 binding assay (Cis-Bio)", "details": "5 nM hPD-L1, 50 nM hPD-1; for HTRF: Percentage of the Dissociated PD-1/PD-L1 Complex, 0.5 µM Ligand Conc. / inhibition at 0.5 µM: 0.5 µM ligand; for inhibition at 0.5 µM: read-out: HTRF: Percentage of the Dissociated PD-1/PD-L1 Complex, 0.5 µM Ligand Conc.; for HTRF: Percentage of the Dissociated PD-1/PD-L1 Complex, 5 µM Ligand Conc. / inhibition at 5 µM: 5 µM ligand; for inhibition at 5 µM: read-out: HTRF: Percentage of the Dissociated PD-1/PD-L1 Complex, 5 µM Ligand Conc.", "method": "To validate the activity toward PD-L1 of our compounds, we carried out an HTRF (homogeneous time-resolved fluorescence) experiment at two concentrations of the ligand (5 µM and 0.5 µM) (Table 1).\nHTRF was carried out using a certified Cis-Bio assay according to the manufacturer’s guidelines. The experiments were carried out at 5 nM of h-L1 and 50 nM of hPD-1 in the final formulation at the 20 µL final volume in the well. To determine the half maximal inhibitory concentrations (IC50) of the tested compounds, the measurements were carried out on two individual dilution series unless stated otherwise. After mixing all the components according to the Cis-Bio protocol, the plate was left for 2 h incubation at room temperature followed by the TR-FRET measurement on a Tecan Spark 20M. […] The collected data was background-subtracted from the negative control, normalized on the positive control, averaged, and fitted with the normalized Hill’s equation to determine the IC50 value using Mathematica 12 (Princeton, NJ, USA)."}, "[3]": {"system": "PD-1/PD-L1 blockade, Jurkat effector cells / CHO/TCRAct/PD-L1 cells", "experiment": "Immune checkpoint blockade (ICB) assay (Promega): Jurkat ECs co-cultured with CHO/TCRAct/PD-L1 cells, NFAT luciferase readout", "type": "cell-based, human", "details": "for Promega Assay (active / not active): cell-based PD-1/PD-L1 blockade bioassay", "method": "In order to explore the bioactivity of the synthesized compounds, a well-recognized immune checkpoint blockade (ICB) assay was performed. In the assay, artificial T cells, the Jurkat effector cells (Jurkat ECs), i.e., the Jurkat T cells overexpressing PD-1 and luciferase-coding gene under the control of the TCR-inducible NFAT response element, are contacted with artificial antigen-presenting CHO/TCRAct/PD-L1 cells, as illustrated in [31]. The latter is the CHO cells equipped with the TCR activator molecule, which delivers activation of Jurkat ECs, and also the PD-L1 protein, which provides a negative signal towards the activation of Jurkat ECs. Upon the blockade of the PD-1/PD-L1 interaction, activation of Jurkat ECs is increased, as we have shown before for several classes of therapeutic antibodies and small molecules.\nThe human PD-L1-expressing CHO-K1 cells overexpressing TCR activator (CHO/TCRAct/PD-L1) cells and Jurkat ECs T cells overexpressing PD-1 and carrying a luciferase reporter gene under the control of the Nuclear Factor of Activated T cells Response Element (NFAT-RE) were obtained from Promega and cultured in an RPMI-1640 medium (Biowest, Nuaillé, France) supplemented with 10% fetal bovine serum (FBS, Biowest, Nuaillé, France) and […] L-glutamine (Biowest, Nuaillé, France). G418 (250 µg/mL, InvivoGen, San Diego, CA, USA) and Hygromycin B Gold (50 µg/mL, InvivoGen, San Diego, CA, USA) were also added to the culture medium as selection antibiotics. CAKI 2, LNCap, PC-3, and MDA-MB-231 cells were purchased from the European Collection of Authenticated Cell Cultures (ECACC) and cultured according to the provided protocol.\nFor the analysis of biological activity of the analyzed compounds, an immune checkpoint blockade (ICB) assay was performed. For this, the culture of Jurkat effector cells (Jurkat-ECs) and […] was carried out. The assay was performed according to the protocol described in our previous works. All the experiments were performed three times as independent experiments.\nFigure 2 Bioactivity of the indicated compounds. (A,B) The activity was monitored with a cell-based immune checkpoint blockade (ICB) assay. Jurkat ECs were contacted with pre-seeded CHO/TCRAct/PD-L1 cells in the presence of the indicated concentrations of the compounds (A) or durvalumab (B) as a positive control. The cells were co-cultured for 6 h and the luminescence signal was measured following the addition of the Bio-Glo substrate. The graphs show fold induction calculated versus either DMSO-treated (for small molecules) or untreated (for durvalumab) control (ctrl) cells. The results are mean ± SD from three independent experiments. […] (C) Analysis of the expression of PD-L1 in four human cancer cell lines compared to PD-L1-overexpressing CHO/TCRAct/PD-L1 cells. (D) Analysis of the expression of PD-L1 in MDA-MB-231 cells treated with either 4 or 5 compounds for 6 or 24 h."}},
  "data": [
    {"compound": "Cc1c(COc2cc(OCc3cccc(C#N)c3)c(CN3C[C@H](O)C[C@@H]3C(=O)O)cc2Cl)cccc1-c1ccc2c(c1)OCCO2", "note": "[BMS-1166, reference compound]", "values": [
      {"measurement": "Protein precipitation during NMR titration", "setting": "[1]", "value": "not observed"},
      {"measurement": "HTRF: Percentage of the Dissociated PD-1/PD-L1 Complex, 0.5 µM Ligand Conc.", "setting": "[2]", "value": 100, "unit": "%"},
      {"measurement": "HTRF: Percentage of the Dissociated PD-1/PD-L1 Complex, 5 µM Ligand Conc.", "setting": "[2]", "value": 100, "unit": "%"}
    ]},
    {"compound": "Cc1c(COc2cc(OCc3cccc(C#N)c3)c(C(NCCCNc3cccc4c3C(=O)N(C3CCC(=O)NC3=O)C4=O)c3nnnn3C(C)(C)C)cc2Cl)cccc1-c1ccc2c(c1)OCCO2", "note": "(stereo not drawn) [compound 6, 3-((2-((1-(tert-butyl)-1H-tetrazol-5-yl)((3-((2-(2,6-dioxopiperidin-3-yl)-1,3-dioxoisoindolin-4-yl)amino)propyl)amino)methyl)-4-chloro-5-((3-(2,3-dihydrobenzo[b][1,4]dioxin-6-yl)-2-methylbenzyl)oxy)phenoxy)methyl)benzonitrile]", "values": [
      {"measurement": "Protein precipitation during NMR titration", "setting": "[1]", "value": "massive protein precipitation"},
      {"measurement": "Binding to PD-L1 by 1H NMR titration", "setting": "[1]", "value": "does not present changes in the PD-L1 NMR protein spectra"},
      {"measurement": "Promega Assay (active / not active)", "setting": "[3]", "value": "Not active"},
      {"measurement": "inhibition at 0.5 µM", "setting": "[2]", "value": 13.8, "unit": "%"},
      {"measurement": "inhibition at 5 µM", "setting": "[2]", "value": 25.9, "unit": "%"}
    ]},
    {"compound": "Cc1c(COc2ccc3nc(CNC(=O)CCCC(=O)Nc4cccc5c4C(=O)N(C4CCC(=O)NC4=O)C5=O)c(NCc4cccc(C#N)c4)n3c2)cccc1-c1ccc(F)cc1", "note": "(stereo not drawn) [compound 12, N1-((3-((3-cyanobenzyl)amino)-6-((4′-fluoro-2-methyl-[1,1′-biphenyl]-3-yl)methoxy)imidazo [1,2-a]pyridin-2-yl)methyl)-N5-(2-(2,6-dioxopiperidin-3-yl)-1,3-dioxoisoindolin-4-yl)glutaramide]", "values": [
      {"measurement": "Promega Assay (active / not active)", "setting": "[3]", "value": "Not active"},
      {"measurement": "inhibition at 0.5 µM", "setting": "[2]", "value": 40.9, "unit": "%"},
      {"measurement": "inhibition at 5 µM", "setting": "[2]", "value": 76.3, "unit": "%"}
    ]},
    {"compound": "Nc1cccc2c1C(=O)N(C1CCC(=O)NC1=O)C2=O", "note": "(stereo not drawn) [pomalidomide]", "values": [
      {"measurement": "Binding to PD-L1 by 1H NMR titration", "setting": "[1]", "value": "lack of interaction"},
      {"measurement": "Activation of Jurkat ECs in the ICB assay", "setting": "[3]; 6 h co-culture, fold induction vs control", "value": "did not increase the activation of Jurkat ECs"},
      {"measurement": "HTRF: Percentage of the Dissociated PD-1/PD-L1 Complex, 0.5 µM Ligand Conc.", "setting": "[2]", "value": 11.4, "unit": "%"},
      {"measurement": "HTRF: Percentage of the Dissociated PD-1/PD-L1 Complex, 5 µM Ligand Conc.", "setting": "[2]", "value": 20.1, "unit": "%"}
    ]},
    {"compound": "N1-(2-(2,6-dioxopiperidin-3-yl)-1,3-dioxoisoindolin-4-yl)-N5-((6-((2-methyl-[1,1′-biphenyl]-3-yl)methoxy)-3-((1-phenylethyl)amino)imidazo [1,2-a]pyridin-2-yl)methyl)glutaramide [compound 13]", "values": [
      {"measurement": "Promega Assay (active / not active)", "setting": "[3]", "value": "Not active"},
      {"measurement": "HTRF: Percentage of the Dissociated PD-1/PD-L1 Complex, 0.5 µM Ligand Conc.", "setting": "[2]", "value": 30.4, "unit": "%"},
      {"measurement": "HTRF: Percentage of the Dissociated PD-1/PD-L1 Complex, 5 µM Ligand Conc.", "setting": "[2]", "value": 31.1, "unit": "%"}
    ]}
  ]
}
